pKi: −log10 of the molar value. Calls of active or inactive are those of the source. The rule behind the calls is not given here.
Experiments:
Gallus gallus [1] = species: Gallus gallus; assay: Binding affinity to acetylcholine receptor in isolated Gallus gallus (chicken) biventar cervicis muscle assessed as reduction of twitch response to carbachol at 5 uM up to 10 min
Gallus gallus [2] = species: Gallus gallus; assay: Binding affinity to acetylcholine receptor in isolated Gallus gallus (chicken) biventar cervicis muscle assessed as reduction of twitch response to carbachol in presence of neostigmine
Gallus gallus [3] = species: Gallus gallus; assay: Binding affinity to acetylcholine receptor in isolated Gallus gallus (chicken) biventar cervicis muscle assessed as reduction of twitch response to carbachol after washout
Electrophorus electricus = assay: (§1) Inhibition of Electrophorus electricus (electric eel) acetylcholinesterase
[4] = as §1
Gallus gallus [5] = species: Gallus gallus; assay: Binding affinity to acetylcholine receptor in isolated Gallus gallus (chicken) biventar cervicis muscle assessed as reduction of twitch response to carbachol
Gallus gallus [6] = species: Gallus gallus; assay: Binding affinity to acetylcholine receptor in isolated Gallus gallus (chicken) biventar cervicis muscle assessed as reduction of twitch response to carbachol at 1 uM up to 10 min

Row | Compound | Activity (Gallus gallus [1]) | Activity (Gallus gallus [2]) | Activity (Gallus gallus [3]) | inhibition (Electrophorus electricus) | pKi [4] | K (Gallus gallus [5]) [µM] | Activity (Gallus gallus [6])
1 | C[C@]12CC[C@H](N3CCCC3)C[C@@H]1CC[C@@H]1[C@@H]2CC[C@]2(C)[C@@H](O)[C@@H](N3CCCCC3)C[C@@H]12 | Active | inactive | inactive | Dose-dependent effect | 6.21 | 0.9 | 
2 | CC(=O)O[C@H]1[C@@H](N2CCCCC2)C[C@H]2[C@@H]3CC[C@H]4C[C@@H](N5CCCC5)CC[C@]4(C)[C@H]3CC[C@@]21C |  | inactive | inactive | Dose-dependent effect | 6.01 | 0.2 | Active
